According to ChEMBL document CHEMBL1201862, “PubChem BioAssay data set” (2004):
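Test compounds were applied to cells in 96-well plates for 48 hours at 5 doses. GI50 is the concentration that inhibits growth by half.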 The source made the active and inactive calls. Rule as the data show it: active = GI50 up to about 1.1 µM and inactive = higher.

Experiments:
Assay in all cases: NCI anticancer screen, dose series, 48 h
[1] = tested on: DU-145
[2] = tested on: PC-3
[3] = tested on: NCI-H23
[4] = tested on: UO-31
[5] = tested on: MCF7
[6] = tested on: SF-268
[7] = tested on: NCI/ADR-RES
[8] = tested on: SNB-19
[9] = tested on: SNB-75
[10] = tested on: OVCAR-8
[11] = tested on: SK-MEL-5
[12] = tested on: KM12
[13] = tested on: UACC-62
[14] = tested on: 786-0
[15] = tested on: U-251
[16] = tested on: LOX IMVI
[17] = tested on: MDA-MB-435
[18] = tested on: MDA-N
[19] = tested on: NCI-H522
[20] = tested on: SK-MEL-28

Measured: GI50

C[n+]1c(-c2ccc(/C=N\N3CCN(/N=C/c4ccc(-c5cn6ccccc6[n+]5C)cc4)CC3)cc2)cn2ccccc21
inactive: [1] 34.4 µM | [2] > 100 µM | [3] 27.8 µM | [4] > 100 µM | [5] > 100 µM | [6] 48.2 µM | [7] > 100 µM | [8] 32 µM | [9] 39.4 µM | [10] > 100 µM | [11] 17.8 µM | [12] 55.3 µM | [13] 33.7 µM | [14] 21.9 µM | [15] 27.1 µM | [16] > 100 µM | [17] 34.5 µM | [18] 36.2 µM | [19] 83.9 µM

CCN(CC)C(=S)SC(C(=O)Nc1nnc(-c2ccc(Cl)cc2)o1)c1ccccc1 (stereo not given)
inactive: [1] 20.1 µM | [2] 3.35 µM | [3] 22.1 µM | [4] 17 µM | [5] 7.26 µM | [6] 15.6 µM | [7] 5.68 µM | [20] 14 µM | [8] 34.6 µM | [10] 5.79 µM | [11] 4.6 µM | [12] 17.9 µM | [13] 7.35 µM | [14] 10 µM | [15] 10 µM | [16] 15.3 µM | [17] 14.2 µM | [18] 17.3 µM | [19] 4.62 µM

COc1ccc(OC)c(-c2cn3c(n2)sc2ccccc23)c1
inactive: [1] > 100 µM | [2] 30.6 µM | [3] > 100 µM | [4] > 100 µM | [5] 3.44 µM | [6] > 100 µM | [7] > 100 µM | [8] > 100 µM | [9] > 100 µM | [10] 94.8 µM | [11] 65 µM | [12] > 100 µM | [13] 64.1 µM | [14] 58.5 µM | [15] > 100 µM | [16] > 100 µM | [17] > 100 µM | [18] > 100 µM | [19] > 100 µM

N#C/N=C(/NCc1ccccc1)N(Cc1ccccc1)Cc1ccccc1
inactive: [1] 63 µM | [2] 28.2 µM | [3] 19.8 µM | [4] 16.4 µM | [5] 36.1 µM | [6] 22.2 µM | [7] 30.3 µM | [20] 27.5 µM | [8] > 89.1 µM | [10] 20.2 µM | [11] 14.9 µM | [12] 27.6 µM | [13] 8.13 µM | [14] 23.2 µM | [15] 24.7 µM | [16] 19.2 µM | [17] 49.1 µM | [18] 46.7 µM | [19] 15.1 µM

Cc1ccc(C(=O)N(Cc2ccccc2)Cc2ccccc2)cc1/N=N/N(C)C
inactive: [1] 36.6 µM | [2] 25.9 µM | [3] 11.2 µM | [4] 15.6 µM | [5] 24.2 µM | [6] 18.5 µM | [7] 22.5 µM | [20] 19.3 µM | [8] 15 µM | [10] 29.9 µM | [11] 10.7 µM | [12] 8.32 µM | [13] 13.1 µM | [14] 22.2 µM | [15] 37.8 µM | [16] 7.23 µM | [17] 22.4 µM | [18] 30.2 µM | [19] 9.44 µM

Cc1nc2sccn2c1C(=O)OCCOCCOCCOCCOC(=O)c1c(C)nc2sccn12
inactive: [1] > 100 µM | [2] 63.2 µM | [3] 19.5 µM | [4] 70.5 µM | [5] 61.5 µM | [6] > 100 µM | [7] 27.9 µM | [20] 90.2 µM | [8] > 100 µM | [10] 39.6 µM | [11] 11.7 µM | [12] 49.7 µM | [13] 38.6 µM | [14] > 100 µM | [15] > 100 µM | [16] 57.3 µM | [17] 45.4 µM | [18] 36.1 µM | [19] 48.8 µM

Cc1cc(=O)oc2cc(OC(=O)N(C)C)c(Cl)cc12
inactive: [1] > 100 µM | [2] > 100 µM | [3] > 100 µM | [4] > 100 µM | [5] > 100 µM | [6] 86.5 µM | [7] > 100 µM | [20] > 100 µM | [8] 71.4 µM | [10] > 100 µM | [11] 76 µM | [12] > 100 µM | [13] 21.6 µM | [14] 87.5 µM | [15] 53 µM | [16] 85.5 µM | [17] 65 µM | [18] > 100 µM | [19] 57.7 µM

CC(=O)O[C@H]1C[C@](C)(O)[C@@]23CC([C@@H](OC(=O)C(C)(C)O)[C@@H](OC(C)=O)C2(COC(=O)c2ccccc2)[C@H]1OC(C)=O)C(C)(C)O3 (stereo not given in full)
inactive: [1] > 100 µM | [2] 44 µM | [3] > 100 µM | [4] > 100 µM | [5] 50.9 µM | [6] > 100 µM | [7] > 100 µM | [20] > 100 µM | [8] > 100 µM | [10] > 100 µM | [11] 77.6 µM | [12] 78.5 µM | [13] > 100 µM | [14] > 100 µM | [15] 33.4 µM | [16] 61.5 µM | [17] > 100 µM | [18] > 100 µM | [19] 67.1 µM

CCn1cc2c(=O)n3ncn(-c4ccc(Br)cc4)c3nc2n1
inactive: [1] > 100 µM | [2] > 100 µM | [3] > 100 µM | [4] > 100 µM | [5] > 100 µM | [6] > 100 µM | [7] > 100 µM | [20] > 100 µM | [8] 49.9 µM | [9] 21 µM | [10] 78.9 µM | [11] > 100 µM | [12] > 100 µM | [13] > 100 µM | [14] 63.2 µM | [15] 58.1 µM | [17] > 100 µM | [18] > 100 µM | [19] > 100 µM

Clc1cccc(/N=C/C=C/Nc2cccc(Cl)c2)c1
inactive: [1] 29 µM | [2] 15.1 µM | [3] 21.3 µM | [4] 16 µM | [5] 18.8 µM | [6] > 10 µM | [7] 16.9 µM | [20] 16.1 µM | [8] > 10 µM | [9] > 10 µM | [10] 18 µM | [11] 16.8 µM | [12] 14.1 µM | [14] 15.7 µM | [15] 16.5 µM | [16] 6.32 µM | [17] 15.6 µM | [18] 13.9 µM | [19] 14.8 µM
